In patent US6355785B1, “Guanosine-rich oligonucleotide integrase inhibitors” (Aronex Pharmaceuticals, Inc., priority 1993, dated 2002):
Where two headings read alike, the source gives them in different places.

How the values were obtained:
[1] = system: HIV-1 laboratory isolates; assay: HIV-1 infection of PBMCs (p24); assay type: cell-based; details: read-out: IC50 viral production
[2] = parameters: species or system cynomolgus monkeys; details: cynomolgus monkey, in vivo
Description: Dosing. Twelve experimentally naive cynomolgus monkeys were assigned to four groups of three animals each. Prior to dosing, each animal was lightly sedated with a combination of ketamine (1 0 mg/kg) and diazepam (0.5 mg/kg), and a catheter was introduced into the femoral artery for recording central arterial pressure. Monkeys were given a single intravenous infusion of 5, 20, or 50 mg AR177/kg or saline over ten minutes through a cephalic vein catheter using a Harvard infusion pump. Arterial blood samples were drawn at −10, +10, +20, +40, +60 and +120 minutes relative to the initiation of infusion into EDTA-containing tubes for hematology, complement factors, coagulation assay, serum chemistry, and plasma AR177 determination. At 24 hours post-infusion, blood was drawn via the femoral vein into EDTA-containing tubes for these same parameters. The concentration of AR177 in dosing solutions was confirmed post experiment by absorbance at 280 nm on a spectrophotometer. For the determination of AR177 by HPLC, the plasma fraction was obtained by low speed centrifugation of blood, and stored at −20° C. until used. Electrocardiograms (ECGs), central pressure, and heart rate were recorded continuously for 120 minutes following the initiation of doing. Table E-1 summarizes the study design. The animals were observed twice daily pharmacotoxic signs and general health beginning two days before dosing and for seven days following dosing. The monkeys were not necropsied at the end of the study.
Hematology and coagulation parameters. The following are determined: red blood cell count and morphology, total and differential white blood cells, hemoglobin, hematocrit, prothrombin time, fibrinogen, mean cell hemoglobin, mean corpuscular volume, mean corpuscular hemoglobin concentration, platelet count, and activated partial thromboplastin time. Hematology parameters were determined at Sierra Nevada Laboratories (Reno, Nev.).

## 5′-gtggtgggtgggtgggt-3′ (GTGGTGGGTGGGTGGGT; phosphorothioate termini, further chemistry not given here) [T30177, pPT version of parent compound I100-15, 17 mer]
[1]; HIV-1 IIIB
  IC50: 120 nM
[1]; HIV-1 JRCSF
  IC50: 280 ± 40 nM
[1]; HIV-1 MN
  IC50: 1350 ± 100 nM
[1]; HIV-1 RF
  IC50: 750 ± 130 nM
[2]
  anticoagulant potency, less potent than thrombin-binding aptamer oligonucleotide: 40 fold
  hematology values: no changes in hematology values attributable to AR177
